In US20050165029A1, “Pyrrolopyrimidine derivatives and analogs and their use in the treatment and prevention of diseases” (Ambit Biosciences Corporation, priority 2004, published 2005):

Legend:
[1] = target: T1, PDGFR-β (Homo sapiens, UniProt P09619); assay: PDGFR-β (DKIN) phage-display competitive binding assay
T1 construct: made in house; host or cells: T7 bacteriophage display
Protocol: (§1) Described in the exemplary assays below is data from binding with varying kinases. […] The term “ND” represents non-determined values.
Kd values for the interactions between PDGFR-β and candidate small molecule ligands were measured by a phage-display-based competitive binding assay that is described in detail in U.S. Ser. No. 10/406,797 filed 2 Apr. 2003 and incorporated herein by reference, Briefly, T7 phage displaying human PDGFR-β were incubated with an affinity matrix coated with known PDGFR-β inhibitor in the presence of various concentrations of the soluble competitor molecules. […] The Kd for the interaction between the soluble competitor molecule and PDGFR-β is equal to the concentration of soluble competitor molecule that causes a 50% reduction in the number of phage recovered in the eluate compared to a control sample lacking soluble competitor. Since this assay is generic, and any molecule can be used as a soluble competitor, we have determined Kd values for the interaction between PDGFR-β and several small molecules, including those shown below.

[2] = target: T2, FLT3 (Homo sapiens, UniProt P36888); assay: FLT3(DKIN) phage-display competitive binding assay
T2 construct: made in house; host or cells: T7 bacteriophage display
T2 sequence (P36888 27-993): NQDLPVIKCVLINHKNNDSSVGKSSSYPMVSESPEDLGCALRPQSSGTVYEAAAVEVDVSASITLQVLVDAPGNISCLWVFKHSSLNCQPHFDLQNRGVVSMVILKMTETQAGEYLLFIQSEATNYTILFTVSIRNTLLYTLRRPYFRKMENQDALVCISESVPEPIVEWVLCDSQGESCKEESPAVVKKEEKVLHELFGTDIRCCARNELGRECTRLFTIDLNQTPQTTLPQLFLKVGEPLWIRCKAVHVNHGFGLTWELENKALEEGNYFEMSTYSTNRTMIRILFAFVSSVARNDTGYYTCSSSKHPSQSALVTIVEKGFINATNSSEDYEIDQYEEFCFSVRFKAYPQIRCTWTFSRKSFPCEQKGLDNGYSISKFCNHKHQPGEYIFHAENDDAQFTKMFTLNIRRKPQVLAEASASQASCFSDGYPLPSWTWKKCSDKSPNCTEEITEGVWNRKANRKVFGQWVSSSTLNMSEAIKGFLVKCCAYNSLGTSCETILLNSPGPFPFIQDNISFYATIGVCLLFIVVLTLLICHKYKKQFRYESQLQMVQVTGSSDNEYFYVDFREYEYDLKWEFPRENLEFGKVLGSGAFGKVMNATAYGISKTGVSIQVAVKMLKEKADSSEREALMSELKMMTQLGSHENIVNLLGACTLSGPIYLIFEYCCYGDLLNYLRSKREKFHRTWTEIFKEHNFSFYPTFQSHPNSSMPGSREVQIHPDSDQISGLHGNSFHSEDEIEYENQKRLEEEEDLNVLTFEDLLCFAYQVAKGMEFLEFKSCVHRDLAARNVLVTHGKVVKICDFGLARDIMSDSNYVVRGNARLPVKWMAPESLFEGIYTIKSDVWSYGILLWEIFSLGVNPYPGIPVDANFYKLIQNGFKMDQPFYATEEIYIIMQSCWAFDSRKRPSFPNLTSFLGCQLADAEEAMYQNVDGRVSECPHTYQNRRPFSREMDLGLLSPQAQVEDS
Source text: (§2) Methods for measuring binding affinities for interactions between small molecules and kinases including FLT3, c-KIT, ABL(T334I) [a.k.a. ABL(T315I)], VEGFR-2 (a.k.a. KDR), and EGFR are described in detail in U.S. application Ser. No. 10/873,835, which is incorporated by reference herein in its entirety. The components of the assays include human kinases expressed as fusions to T7 bacteriophage particles and immobilized ligands that bind to the ATP site of the kinases. […] If the test compound binds the kinase it competes with the immobilized ligand and prevents binding to the solid support. […] The results are read out by quantitating the amount of fusion protein bound to the solid support, which is accomplished by either traditional phage plaque assays or by quantitative PCR (qPCR) using the phage genome as a template. […] The concentration of test molecule that reduces the number of phage bound to the solid support by 50% is equal to the Kd for the interaction between the kinase and the test molecule. Typically, data are collected for twelve concentrations of test compound and, the resultant binding curve is fit to a non-cooperative binding isotherm to calculate Kd.
as §1

[3] = target: T3, VEGFR2 (Homo sapiens, UniProt P35968); assay: VEGFR2(DKIN) phage-display competitive binding assay
T3 construct: made in house; host or cells: T7 bacteriophage display
T3 sequence (P35968 20-1356): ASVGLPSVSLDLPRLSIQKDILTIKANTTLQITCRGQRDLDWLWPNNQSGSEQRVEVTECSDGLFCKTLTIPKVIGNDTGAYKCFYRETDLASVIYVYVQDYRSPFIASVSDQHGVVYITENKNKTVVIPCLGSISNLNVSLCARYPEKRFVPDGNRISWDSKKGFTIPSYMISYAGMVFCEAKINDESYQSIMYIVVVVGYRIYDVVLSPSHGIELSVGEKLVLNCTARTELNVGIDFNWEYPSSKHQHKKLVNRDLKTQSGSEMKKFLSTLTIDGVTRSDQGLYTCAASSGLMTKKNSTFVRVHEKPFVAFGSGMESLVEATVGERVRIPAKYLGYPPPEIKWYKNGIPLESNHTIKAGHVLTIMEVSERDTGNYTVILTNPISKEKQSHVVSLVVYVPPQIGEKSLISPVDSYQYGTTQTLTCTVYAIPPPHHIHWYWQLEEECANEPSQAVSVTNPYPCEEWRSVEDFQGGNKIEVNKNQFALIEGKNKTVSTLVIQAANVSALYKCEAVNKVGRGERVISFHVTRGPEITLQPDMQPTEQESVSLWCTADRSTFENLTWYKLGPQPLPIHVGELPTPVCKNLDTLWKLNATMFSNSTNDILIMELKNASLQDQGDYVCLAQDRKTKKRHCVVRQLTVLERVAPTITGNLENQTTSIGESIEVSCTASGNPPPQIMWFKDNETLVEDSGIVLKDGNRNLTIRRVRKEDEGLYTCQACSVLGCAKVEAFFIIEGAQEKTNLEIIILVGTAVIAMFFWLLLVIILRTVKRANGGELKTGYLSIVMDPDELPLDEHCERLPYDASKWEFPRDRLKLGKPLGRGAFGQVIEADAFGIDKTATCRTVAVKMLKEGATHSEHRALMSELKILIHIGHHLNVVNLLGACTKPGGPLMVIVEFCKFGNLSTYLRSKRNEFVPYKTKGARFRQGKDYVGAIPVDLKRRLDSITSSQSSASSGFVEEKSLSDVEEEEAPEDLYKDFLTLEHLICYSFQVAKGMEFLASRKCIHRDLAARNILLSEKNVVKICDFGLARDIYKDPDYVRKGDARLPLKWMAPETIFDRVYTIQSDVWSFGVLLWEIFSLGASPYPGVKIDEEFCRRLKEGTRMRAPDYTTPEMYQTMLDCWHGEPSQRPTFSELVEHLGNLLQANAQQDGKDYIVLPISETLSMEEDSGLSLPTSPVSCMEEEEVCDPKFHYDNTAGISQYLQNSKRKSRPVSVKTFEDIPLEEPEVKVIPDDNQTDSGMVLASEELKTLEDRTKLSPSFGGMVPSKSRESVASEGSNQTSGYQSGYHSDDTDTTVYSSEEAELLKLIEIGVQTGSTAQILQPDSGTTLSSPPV
Source text: as §2, §1

[4] = target: T4, ABL1 (Homo sapiens, UniProt P00519); assay: ABL1 phage-display competitive binding assay
T4 construct: made in house; host or cells: T7 bacteriophage display
T4 sequence (P00519 whole entry): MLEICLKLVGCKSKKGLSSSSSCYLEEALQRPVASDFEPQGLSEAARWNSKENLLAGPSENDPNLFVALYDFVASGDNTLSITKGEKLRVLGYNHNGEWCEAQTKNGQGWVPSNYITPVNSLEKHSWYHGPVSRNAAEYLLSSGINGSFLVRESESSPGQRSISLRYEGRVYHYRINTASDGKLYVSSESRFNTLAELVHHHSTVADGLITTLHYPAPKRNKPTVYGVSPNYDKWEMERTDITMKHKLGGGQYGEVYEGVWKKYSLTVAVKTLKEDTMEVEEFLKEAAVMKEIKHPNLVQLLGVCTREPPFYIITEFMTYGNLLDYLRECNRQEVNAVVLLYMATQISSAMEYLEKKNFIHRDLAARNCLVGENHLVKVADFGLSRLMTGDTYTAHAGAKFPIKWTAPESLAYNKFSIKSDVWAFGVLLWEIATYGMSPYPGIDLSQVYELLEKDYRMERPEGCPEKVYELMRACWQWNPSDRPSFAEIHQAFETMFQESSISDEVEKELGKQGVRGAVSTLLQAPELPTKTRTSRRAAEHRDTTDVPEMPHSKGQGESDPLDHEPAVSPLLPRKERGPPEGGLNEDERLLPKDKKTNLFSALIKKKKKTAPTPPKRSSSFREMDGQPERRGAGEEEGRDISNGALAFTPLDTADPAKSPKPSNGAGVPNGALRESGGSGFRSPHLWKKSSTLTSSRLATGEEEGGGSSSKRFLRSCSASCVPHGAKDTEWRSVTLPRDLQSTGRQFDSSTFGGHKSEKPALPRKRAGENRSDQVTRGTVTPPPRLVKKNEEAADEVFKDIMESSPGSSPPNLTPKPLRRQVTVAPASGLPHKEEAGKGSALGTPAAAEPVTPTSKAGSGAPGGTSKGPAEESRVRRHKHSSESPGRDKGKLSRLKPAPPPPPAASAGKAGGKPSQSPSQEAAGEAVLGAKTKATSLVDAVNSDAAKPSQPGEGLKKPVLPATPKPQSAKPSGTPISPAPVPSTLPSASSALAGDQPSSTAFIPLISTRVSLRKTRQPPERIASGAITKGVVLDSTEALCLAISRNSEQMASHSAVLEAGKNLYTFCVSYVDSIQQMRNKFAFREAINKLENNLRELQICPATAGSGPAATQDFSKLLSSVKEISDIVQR
Source text: as §2, §1

[5] = system: MV4,11 cells; assay: FLT3 assay using MV4,11 cells (cell proliferation, MTS); type: cell-based; settings: Homo sapiens, MV 4,11 cells, 0.5% serum, read-out: (MV 4,11) Cell Proliferation Assay with 0.5% Serum IC50 (nM) “CS0001”
Protocol: The ability of FLT3 kinase inhibitors to inhibit cellular proliferation was also examined. MV4:11 was a cell line derived from a patient with acute myelogenous leukemia. It expressed a mutant FLT3 protein that was constitutively active. […] Inhibition of FLT3 kinase activity prevented proliferation of these cells, and thus the MV4:11 cell line can be used a model for cellular activity of small molecule inhibitors of FLT3.
FLT3 assay using MV4,11 cells
MV4,11 cells were grown in an incubator @ 37° C. in 5% CO2 in Medium 2 (RPMI, 10% FBS, 4 mM glutamine, Penn/Strep). The cells were counted daily and the cell density was kept between 1e5 and 8e5 cells/ml.
Day One: Enough cells were harvested for experiments to be conducted in 50 ml conical tubes. The harvested cells were spun at 500 g for 5 min at 4° C., the supernatant was then aspirated and the cells were resuspended in the starting volume of 1×PBS. The cells were again spun at 500 g for 5 min at 4° C. and the supernatant again aspirated. […]
Day Two: The cells were counted and enough medium 3 was added to decrease density to 2e5 cells/ml. 50 ul (10,000 cells) was aliquoted into each well of a 96 well optical plate using multichannel pipetman. The compound plate was then set up by aliquoting 3 μl of negative control (DMSO) into column 1 of a 96 well 300 ul polypropylene plate, aliquoting 3 μl of positive control (10 mM AB20121) into column 12 of plate, and aliquoting 3 μl of appropriate compounds from serial dilutions into columns 2-11. To each well, 150 μl of Medium 3 was added and 50 μl of compound/medium mixture from compound plate into rows of optical plate in duplicate. The cells were then incubated at @ 37° C. in 5% CO2 for 3 days.
Day Five: MTS was thawed in a H2O bath. 20 μl of MTS was added to each well of optical plate and the cells were incubated @ 37° C. in 5% CO2 for 2 hours. The plate was then placed on a plate shaker for 30 seconds on high speed.

[6] = target: T5, inactive form of KIT, which contains the autoinhibitory juxtamembrane domain (Homo sapiens, UniProt P10721); assay: KIT (DKIN) Binding Assay; settings: inactive form of KIT with autoinhibitory juxtamembrane domain
T5 construct: made in house; host or cells: T7 bacteriophage display
T5 sequence (P10721 546-976 limits assumed): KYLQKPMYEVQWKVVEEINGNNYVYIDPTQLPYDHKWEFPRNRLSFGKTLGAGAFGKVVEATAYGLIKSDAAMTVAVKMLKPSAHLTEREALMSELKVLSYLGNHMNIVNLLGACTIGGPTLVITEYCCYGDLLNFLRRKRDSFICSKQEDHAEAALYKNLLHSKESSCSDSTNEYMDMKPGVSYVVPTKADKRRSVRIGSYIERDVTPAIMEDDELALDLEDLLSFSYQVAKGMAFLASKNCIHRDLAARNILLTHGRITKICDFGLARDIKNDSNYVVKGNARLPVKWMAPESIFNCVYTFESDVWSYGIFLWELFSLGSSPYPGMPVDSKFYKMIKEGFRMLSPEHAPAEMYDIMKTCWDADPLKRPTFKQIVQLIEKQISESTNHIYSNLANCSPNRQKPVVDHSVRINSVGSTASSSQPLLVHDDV
Source text: as §2, §1

T1 sequence (P09619 33-1106): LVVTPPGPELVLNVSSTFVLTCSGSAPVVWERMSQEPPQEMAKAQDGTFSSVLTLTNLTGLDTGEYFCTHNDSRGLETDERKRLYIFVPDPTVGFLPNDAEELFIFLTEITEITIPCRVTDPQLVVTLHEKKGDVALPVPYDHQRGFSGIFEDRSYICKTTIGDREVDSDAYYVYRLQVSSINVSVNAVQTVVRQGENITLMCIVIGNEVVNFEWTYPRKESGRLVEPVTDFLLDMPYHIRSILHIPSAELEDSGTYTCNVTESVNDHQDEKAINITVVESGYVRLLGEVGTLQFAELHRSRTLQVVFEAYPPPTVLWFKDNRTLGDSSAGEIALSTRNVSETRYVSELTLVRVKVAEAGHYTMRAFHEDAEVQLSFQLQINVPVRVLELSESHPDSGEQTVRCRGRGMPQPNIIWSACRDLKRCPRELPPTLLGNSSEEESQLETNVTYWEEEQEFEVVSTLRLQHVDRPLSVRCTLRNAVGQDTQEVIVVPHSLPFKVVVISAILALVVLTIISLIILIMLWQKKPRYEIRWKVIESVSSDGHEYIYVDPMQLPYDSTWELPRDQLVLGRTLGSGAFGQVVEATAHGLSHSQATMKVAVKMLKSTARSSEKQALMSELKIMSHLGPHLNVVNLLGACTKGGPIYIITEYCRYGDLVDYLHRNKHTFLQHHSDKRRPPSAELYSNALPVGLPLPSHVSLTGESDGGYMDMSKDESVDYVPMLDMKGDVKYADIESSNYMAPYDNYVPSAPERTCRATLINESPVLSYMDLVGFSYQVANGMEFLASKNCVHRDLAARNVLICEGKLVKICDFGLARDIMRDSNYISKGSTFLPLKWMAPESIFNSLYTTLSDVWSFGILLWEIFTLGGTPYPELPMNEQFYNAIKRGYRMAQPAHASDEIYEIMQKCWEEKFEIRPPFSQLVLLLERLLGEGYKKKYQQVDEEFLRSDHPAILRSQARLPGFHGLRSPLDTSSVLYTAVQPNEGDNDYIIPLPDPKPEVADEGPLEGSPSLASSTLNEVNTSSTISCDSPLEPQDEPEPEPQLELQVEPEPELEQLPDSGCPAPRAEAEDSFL

Kd [1] [nM]	Kd [2] [nM]	Structure (SMILES)	other results
100 to 1000	–	COc1ccc(-c2cc3c(Oc4cccc(OC)c4)ncnc3[nH]2)cc1 [Compound D7]	–
1000 to 10000	–	COc1ccc(-c2cc3c(Oc4cccc(C)c4)ncnc3[nH]2)cc1 [Compound D8]	–
100 to 1000	–	COc1ccc(-c2cc3c(Oc4ccc(Cl)cc4)ncnc3[nH]2)cc1 [Compound D11]	–
100 to 1000	100 to 1000	COc1ccc(-c2cc3c(Oc4ccc(F)cc4)ncnc3[nH]2)cc1 [Compound D13]	–
1000 to 10000	1000 to 10000	COc1ccc(-c2cc3c(Oc4ccc(C)cc4)ncnc3[nH]2)cc1 [Compound D14]	–
100 to 1000	–	COc1cccc(-c2cc3c(Oc4ccc(Cl)cc4)ncnc3[nH]2)c1 [Compound D22]	–
1000 to 10000	100 to 1000	COc1cccc(-c2cc3c(Oc4ccccc4)ncnc3[nH]2)c1 [Compound D24]	–
–	–	COc1cccc(Oc2ncnc3[nH]c(-c4ccc(O)cc4)cc23)c1 [Compound E4]	Kd [3]: 1000 to 10000 nM
–	> 10000	Clc1ccccc1Sc1ncnc2[nH]ccc12 [Compound F1, 4-(2-Chloro-phenylsulfanyl)-7H-pyrrolo[2,3-d]pyrimidine]	–
–	–	COc1ccc(-c2cc3c(Sc4ccc(Cl)c(Cl)c4)ncnc3[nH]2)cc1 [Compound J3]	Kd [4]: < 100 nM
–	> 10000	COc1ccc(-c2cc3c(Sc4cc(C)cc(C)c4)ncnc3[nH]2)cc1 [Compound J5]	IC50 [5]: < 100 nM
–	–	COc1ccc(-c2cc3c(Sc4cccc(OC)c4)ncnc3[nH]2)cc1 [Compound J9]	Kd [4]: 100 to 1000 nM
1000 to 10000	–	COc1ccc(-c2cc3c(Sc4ccc(Cl)cc4)ncnc3[nH]2)cc1 [Compound J12]	–
100 to 1000	–	COc1ccc(-c2cc3c(Sc4ccc(C)cc4)ncnc3[nH]2)cc1 [Compound J14]	Kd [3]: 100 to 1000 nM
100 to 1000	100 to 1000	COc1ccc(-c2cc3c(Sc4ccccc4)ncnc3[nH]2)cc1 [Compound J16]	IC50 [5]: < 100 nM; Kd [6]: 1000 to 10000 nM
–	–	Cc1ccc(-c2cc3c(Sc4cccc(F)c4)ncnc3[nH]2)cc1 [Compound J17]	Kd [4]: 1000 to 10000 nM
–	–	Cc1cc(C)cc(Sc2ncnc3[nH]c(-c4ccc(O)cc4)cc23)c1 [Compound J18]	Kd [4]: 1000 to 10000 nM

Kd [1] [nM]	Kd [2] [nM]	Structure (SMILES)	other results
–	–	COc1cccc(Sc2ncnc3[nH]c(-c4cccc(OC)c4)cc23)c1 [Compound J26]	Kd [4]: 100 to 1000 nM
100 to 1000	100 to 1000	COc1ccc(-c2cc3c(Sc4ccc(F)c(Cl)c4)ncnc3[nH]2)cc1 [Compound J37]	IC50 [5]: 100 to 1000 nM
–	–	Clc1ccc(Sc2ncnc3c2[nH]c2ccccc23)cc1Cl [Compound K5]	IC50 [5]: > 10000 nM
–	–	COc1cccc(Sc2ncnc3[nH]c(-c4ccc(O)cc4)cc23)c1 [Compound L4]	Kd [4]: 100 to 1000 nM; Kd [3]: 100 to 1000 nM
–	–	Cc1cccc(Sc2ncnc3[nH]c(-c4ccc(O)cc4)cc23)c1 [Compound L5]	Kd [3]: > 10000 nM
–	–	Oc1ccc(-c2cc3c(Sc4ccc(Cl)cc4)ncnc3[nH]2)cc1 [Compound L7]	Kd [3]: 1000 to 10000 nM
–	–	Oc1ccc(-c2cc3c(Sc4ccc(F)cc4)ncnc3[nH]2)cc1 [Compound L8]	Kd [3]: > 10000 nM
1000 to 10000	100 to 1000	Cc1ccc(Sc2ncnc3[nH]c(-c4ccc(O)cc4)cc23)cc1 [Compound L9]	Kd [4]: 100 to 1000 nM; Kd [3]: 100 to 1000 nM
–	–	Oc1ccc(-c2cc3c(Sc4ccccc4)ncnc3[nH]2)cc1 [Compound L10]	Kd [3]: > 10000 nM
–	100 to 1000	COc1ccc(-c2cc3c(Sc4ccccc4)ncnc3n2C)cc1 [Compound O7]	–
–	100 to 1000	CCOc1ccc(-c2cc3c(Sc4ccccc4)ncnc3n2CC)cc1 [Compound O8]	–
–	100 to 1000	CC(C)Oc1ccc(-c2cc3c(Sc4ccccc4)ncnc3n2C(C)C)cc1 [Compound O9]	–
–	100 to 1000	COc1ccc(-c2cc3c(Sc4ccccc4)ncnc3n2C(C)C)cc1 [Compound O10]	–
–	100 to 1000	COc1ccc(-c2cc3c(Sc4ccc(C)cc4)ncnc3n2C)cc1 [Compound O11]	–
–	100 to 1000	CCOc1ccc(-c2cc3c(Sc4ccc(C)cc4)ncnc3n2CC)cc1 [Compound O12]	–
–	1000 to 10000	Cc1ccc(Sc2ncnc3c2cc(-c2ccc(OC(C)C)cc2)n3C(C)C)cc1 [Compound O13]	–
–	1000 to 10000	COc1ccc(-c2cc3c(Sc4ccc(C)cc4)ncnc3n2C(C)C)cc1 [Compound O14]	–
